# Experimental data taken from patent EP1749819A1, “(rac)-N-piperidinyl-5-(4-chlorophenyl)-1-(2,4-dichlorophenyl)-4,5-dihydro-1H-pyrazole-3-carboxamide hydrates” (LABORATORIOS DEL DR. ESTEVE, S.A., priority 2005, dated 2007).
# What was measured:
# [1] = target: T1, transfected human CB1 and CB2 receptors: CB1-Receptor (Homo sapiens, UniProt P21554); test: In-vitro determination of affinity to CB1 receptor (radioligand [^3H]-CP55940); type: binding
# T1 construct: purchased Receptor Biology; Inc
# T1 sequence (P21554 whole entry): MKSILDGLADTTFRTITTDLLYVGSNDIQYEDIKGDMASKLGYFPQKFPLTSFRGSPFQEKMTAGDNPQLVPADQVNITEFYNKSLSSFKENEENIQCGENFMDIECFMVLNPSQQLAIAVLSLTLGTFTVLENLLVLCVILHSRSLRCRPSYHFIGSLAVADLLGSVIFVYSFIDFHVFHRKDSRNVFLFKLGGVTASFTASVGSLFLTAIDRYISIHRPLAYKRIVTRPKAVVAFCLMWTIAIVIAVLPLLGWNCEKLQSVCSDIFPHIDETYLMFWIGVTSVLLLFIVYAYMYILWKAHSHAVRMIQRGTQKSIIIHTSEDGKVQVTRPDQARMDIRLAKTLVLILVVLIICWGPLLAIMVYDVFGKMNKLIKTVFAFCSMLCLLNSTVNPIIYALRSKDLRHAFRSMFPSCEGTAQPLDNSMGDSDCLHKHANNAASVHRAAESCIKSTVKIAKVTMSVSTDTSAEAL
# Method: (§1) Brockie et al., "Agonist-inverse agonist characterization at CB1 and CB2 cannabinoid receptors of L-759633, L759656 and AM630", British Journal of Pharmacology, 126, 665-672, (1999), whereby the transfected human CB1 and CB2 receptors of Receptor Biology. Inc. are used. The radioligand used for both receptors is [^3H]-CP55940.
# (§2) The affinity of the inventive substituted pyrazoline compounds to CB1/CB2 receptors was determined as described above.
# [2] = target: T2, transfected human CB1 and CB2 receptors: CB2-Receptor (Homo sapiens, UniProt P34972); test: In-vitro determination of affinity to CB2 receptor (radioligand [^3H]-CP55940); type: binding
# T2 construct: purchased Receptor Biology; Inc
# T2 sequence (P34972 whole entry): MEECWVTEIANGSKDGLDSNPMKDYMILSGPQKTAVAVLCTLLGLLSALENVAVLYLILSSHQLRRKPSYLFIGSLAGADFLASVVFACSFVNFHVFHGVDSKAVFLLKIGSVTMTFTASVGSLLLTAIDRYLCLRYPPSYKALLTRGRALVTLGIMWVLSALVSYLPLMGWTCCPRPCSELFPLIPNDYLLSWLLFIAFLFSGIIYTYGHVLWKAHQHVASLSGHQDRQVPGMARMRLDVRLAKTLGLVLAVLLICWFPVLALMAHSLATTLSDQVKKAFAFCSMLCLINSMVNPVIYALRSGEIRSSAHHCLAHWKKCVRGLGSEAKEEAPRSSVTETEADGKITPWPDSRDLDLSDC
# Method: as §1, §2
# Male NMRI mice [3] = test: Mouse tetrad model, agonistic effect; type: in vivo; details: 5 mg/kg i.v.
# Text: (§3) Substances with affinity for cannabinoid receptors are known to produce a wide range of pharmacological effects. It is also known that intravenous administration of a substance with affinity for cannabinoid receptors in mice produces analgesia , hypothermia, sedation and catalepsy. Individually, none of these effects can be considered as proof that a tested substance has affinity for cannabinoid-receptors, since all of these effects are common for various classes of centrally active aaents. However, substances, which show all of these effects, i.e. substances that are active in this so-called tetrad model are considered to have affinity for the cannabinoid receptors. It has further been shown that cannabinoid receptor antagonists are higly effective in blocking the effects of a cannabinoid agonist in the mouse tetrad model.
# (§4) The tetrad model is described, for example, in the publication of A. C. Howlett et al, International Union of Pharmacology XXVII. Classification of Cannabinoid Receptors, Pharmacol Rev 54, 161-202 , 2002 and David R. Compton et al., "In-vivo Characterization of a Specific Cannabinoid Receptor Antagonist (SR141716A) :Inhibition of Tetrahydrocannbinol- induced Responses and Apparent Agonist Activity", J. Pharmacol. Exp. Ther. 277 , 2, 586-594, 1996. The corresponding parts of the description are hereby incorporated by reference. […]
# (§5) Before testing in the behavioral procedures given below, mice are acclimatized to the experimental setting. Pre-Treatment control values are determined for analgesia hot plate latency (in seconds), rectal temperature, sedation and catalepsy.
# In order to determine the agonistic activty of the substance to be tested, the mice are injected intravenously with the substance to be tested or the vehicle alone. 15 minutes after injection, latency in hot plate analgesia is measured. Rectal temperature, sedation and catalepsy are measured 20 minutes after injection.
# (§6) The hot plate analgesia is determined according to the method described in Woolfe D. et al. "The evaluation of analgesic action of pethidine hydrochloride (Demerol)", J. Pharmacol. Exp. Ther. 80, 300-307,1944.
# (§7) The mice are placed on a hot plate (Harvard Analgesimeter) at 55 ± 0.5 °C until they show a painful sensation by licking their paws or jumping and the time for these sensations to occur is recorded. This reading is considered the basal value (B). […]
# (§8) Fifteen minuts after the administration of the substance to be tested, the mice are again placed on the hot plate and the afore described procedure is repeated. This period is called the post-treatment reading (PT).
# (§9) The degree of analgesia is calculated from the formula: %MPEof Analgesia = (PT−B)/(PC−B) × 100 [formula] […]
# Male NMRI mice [4] = test: Mouse tetrad model, antagonistic effect against Win 55212-2; type: in vivo; details: 5 mg/kg i.v. prior to Win 55212-2 in a dose of 1,25mg/kg i.v.
# Text: as §3, §4, §5
# In order to determine the antagonistic activity the identical procedure is used as for the determination of the agonistic effects, but with the difference that the substance to be evaluated for its antagonistic activity is injectected 5 minutes before the intravenous injection of 1.25 mg/kg Win-55,212 a known cannabinoid-receptor agonist.
# as §6, §7, §8, §9
smiles,measurement,setting,value
"O=C(NN1CCCCC1)C1=NN(c2ccc(Cl)cc2Cl)C(c2ccc(Cl)cc2)C1 (stereo not shown) [Example 1, N-piperidinyl-5-(4-chlorophenyl)-1-(2,4-dichlorophenyl)-4,5-dihydro-1H-pyrazole-3-carboxamide]",Ki,[1],< 25 nM
same,Ki,[2],> 1000 nM
same,Agonistic effect A: Hot-Plate test,Male NMRI mice [3]; 15 minutes after injection,0
same,Agonistic effect B: Hypothermia,Male NMRI mice [3]; 20 minutes after injection,0
same,Agonistic effect C: Catalepsy,Male NMRI mice [3]; 20 minutes after injection,0
same,Agonistic effect D: Sedation,Male NMRI mice [3]; 20 minutes after injection,0
same,Antagonistic Effect A: Hot-Plate test,Male NMRI mice [4],74
same,Antagonistic Effect B: Hypothermia,Male NMRI mice [4],100
same,Antagonistic Effect C: Catalepsy,Male NMRI mice [4],100
same,Antagonistic Effect D: Sedation,Male NMRI mice [4],100
